Structures are written as SMILES.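 Five compound concentrations were applied to cells in 96-well plates for 48 hours; endpoints were derived by simple linear interpolation of the resulting dose-response curve. The concentration for 50% growth inhibition is given as GI50. The concentration for full growth arrest is given as TGI.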

The first experiment relates to HS 578T breast. The experiment can be described thus: inhibition of tumour cell growth, NCI panel, 48 h.
As for `CC1(C)CCCC2OC2CCC(C)(C)C1=O` (stereo unspecified), the TGI was greater than 100 µM.
For `O=C1NCC2(CCN(CCCC3(c4ccc(F)cc4)OCCO3)CC2)N1c1ccccc1`, the TGI was greater than 100 µM.
On the same count and under the same terms, the same measure for `COc1ccc2c(c1)/C(=C\c1c(Cl)nc3sc(C)cn13)C(=O)N2`: 9.6 µM.
The same measure, in the same setting: the same measure for `O=C1c2ccccc2-c2c1c(-c1ccc(F)cc1)nc1ccc3ccccc3c21`: greater than 100 µM; for `O=C(/C=C/c1ccc2c(c1)OCO2)CC(=O)C(=O)c1c[nH]c2ccccc12`: 68.1 µM.
Same read-out and setting: the result for `O=C(Nc1nccs1)c1c(O)nc2sccn2c1=O` reads greater than 10 µM; that for `O=c1[nH]c(=O)n(C2OC(CO)C(O)C2O)c2nc(-c3ccc(-c4ccccc4)cc3)cnc12` (stereo unspecified), greater than 100 µM.
For the compound `O=C1NCCN1/N=C/c1c(Cl)n(-c2ccccc2)c2ccccc12`, the TGI worked out at 43.8 µM.
On the same count and under the same terms, the same measure for `N=C(N)SCc1ccc2c(c1)Sc1ccccc1O2`: 16.5 µM.
`CO[C@H]1/C=C(/C)CCC[C@H](C)[C@H](O)[C@@H](C)C(=O)C(C)(C)[C@@H](O)CC(=O)O[C@@H]1/C(C)=C/c1csc(C)n1`: the GI50 is 0.0234 µM and the TGI was greater than 100 µM.
`CCC1(CC)C(=O)NN(C(=O)c2ccccc2)C1=O` gave a TGI greater than 100 µM.
Compound `CC(=O)Nc1nc(C#N)[nH]c1C#N` had a TGI greater than 100 µM.
In the case of `CS(=O)c1ncc2c(n1)-c1ccccc1OC2` (stereo unspecified), the TGI was greater than 100 µM.
The same measure, in the same setting: the same measure for `CN(C)c1ccc(C(=N/N=C2\C(=O)Nc3ccccc32)c2ccc(N(C)C)cc2)cc1`: greater than 21.9 µM; for `CCCC(=O)OC1CC(n2cc(F)c(=O)[nH]c2=O)OC1COP(=O)(OCC(Cl)(Cl)Cl)OCC(Cl)(Cl)Cl` (stereo unspecified): 76.3 µM.
On the same count and under the same terms, the same measure for `CC1=C[C@@H]2Cc3nc4cc(Cl)ccc4c(N)c3[C@H](C1)C2`: 9.75 µM; for `O=[N+]([O-])C(/C=C(\Cl)n1nnc2ccccc21)=C(/Cl)n1nnc2ccccc21`: greater than 100 µM.
Still for that read-out and setting: the result for `CSC(=S)N(C)C` reads greater than 100 µM; that for `COc1ccc2c(C)cc(=O)oc2c1OC`, greater than 100 µM; that for `CN(C)c1ccc(S(=O)Nc2ccccc2)cc1` (stereo unspecified), greater than 100 µM.
`C=CCSc1nnc2cc(CN3CCCC3)c(-c3ccc(Cl)cc3)nn12` returned a TGI greater than 100 µM.
The same measure, in the same setting: the same measure for `Cc1cn(C2CC(O)C(CO)O2)c(=O)[nH]c1=O` (stereo unspecified): greater than 5000 µM.
For the compound `CSC(=S)N/N=C(\C)c1ccc(S(=O)(=O)N(C)c2ccccc2)cc1`, the TGI stood at 87 µM.
Same read-out and setting: the same measure for `CCNC(=O)Cc1nc2c(N)ncnc2n1C1OC(CO)C(O)C1O` (stereo unspecified): greater than 100 µM.
On the same count and under the same terms, the same measure for `Cc1nc(N)c(N2CCN([N+](=O)[O-])CC2)c(=O)[nH]1`: greater than 100 µM; for `N#CC12C(=O)N=C(N)C1(C#N)C(c1ccco1)NC1=C2CCCC1` (stereo unspecified): greater than 100 µM; for `CCN(CC)CCN(C(=Nc1ccccc1)N1CCOCC1)c1ccccc1`: greater than 100 µM.

For a further experiment, the system named is MALME-3M melanoma. The experiment is described as follows: inhibition of tumour cell growth, NCI panel, 48 h.
For `CC1(C)CCCC2OC2CCC(C)(C)C1=O` (stereo unspecified), the TGI is greater than 100 µM.
For the compound `O=C1NCC2(CCN(CCCC3(c4ccc(F)cc4)OCCO3)CC2)N1c1ccccc1`, the TGI is greater than 100 µM.
In turn, `COc1ccc2c(c1)/C(=C\c1c(Cl)nc3sc(C)cn13)C(=O)N2` had a TGI of 19.9 µM.
Still for that read-out and setting: the result for `O=C1c2ccccc2-c2c1c(-c1ccc(F)cc1)nc1ccc3ccccc3c21` reads greater than 100 µM.
Same read-out and setting: the result for `O=C(/C=C/c1ccc2c(c1)OCO2)CC(=O)C(=O)c1c[nH]c2ccccc12` reads greater than 100 µM; that for `O=C(Nc1nccs1)c1c(O)nc2sccn2c1=O`, greater than 10 µM.
As to `O=c1[nH]c(=O)n(C2OC(CO)C(O)C2O)c2nc(-c3ccc(-c4ccccc4)cc3)cnc12` (stereo unspecified), the TGI is greater than 100 µM.
The same measure, in the same setting: the result for `O=C1NCCN1/N=C/c1c(Cl)n(-c2ccccc2)c2ccccc12` reads 42.7 µM; that for `N=C(N)SCc1ccc2c(c1)Sc1ccccc1O2`, 23.1 µM.
As for `CO[C@H]1/C=C(/C)CCC[C@H](C)[C@H](O)[C@@H](C)C(=O)C(C)(C)[C@@H](O)CC(=O)O[C@@H]1/C(C)=C/c1csc(C)n1`, the GI50 is 0.017 µM and the TGI is greater than 100 µM.
In turn, `CCC1(CC)C(=O)NN(C(=O)c2ccccc2)C1=O` yielded a TGI greater than 100 µM.
In turn, `CC(=O)Nc1nc(C#N)[nH]c1C#N` showed a TGI greater than 100 µM.
Same read-out and setting: the result for `CS(=O)c1ncc2c(n1)-c1ccccc1OC2` (stereo unspecified) reads greater than 100 µM; that for `CN(C)c1ccc(C(=N/N=C2\C(=O)Nc3ccccc32)c2ccc(N(C)C)cc2)cc1`, greater than 52.1 µM.
In turn, `CCCC(=O)OC1CC(n2cc(F)c(=O)[nH]c2=O)OC1COP(=O)(OCC(Cl)(Cl)Cl)OCC(Cl)(Cl)Cl` (stereo unspecified) had a TGI greater than 100 µM.
Same read-out and setting: the result for `CC1=C[C@@H]2Cc3nc4cc(Cl)ccc4c(N)c3[C@H](C1)C2` reads 24.6 µM.
The compound `O=[N+]([O-])C(/C=C(\Cl)n1nnc2ccccc21)=C(/Cl)n1nnc2ccccc21` returned a TGI greater than 100 µM.
On the same count and under the same terms, the same measure for `CSC(=S)N(C)C`: greater than 100 µM; for `COc1ccc2c(C)cc(=O)oc2c1OC`: greater than 100 µM; for `CN(C)c1ccc(S(=O)Nc2ccccc2)cc1` (stereo unspecified): greater than 100 µM.
The same measure, in the same setting: the result for `C=CCSc1nnc2cc(CN3CCCC3)c(-c3ccc(Cl)cc3)nn12` reads 43.2 µM.
The same measure, in the same setting: the same measure for `Cc1cn(C2CC(O)C(CO)O2)c(=O)[nH]c1=O` (stereo unspecified): greater than 4900 µM; for `CSC(=S)N/N=C(\C)c1ccc(S(=O)(=O)N(C)c2ccccc2)cc1`: 22.5 µM.
On to `CCNC(=O)Cc1nc2c(N)ncnc2n1C1OC(CO)C(O)C1O` (stereo unspecified), for which the TGI was greater than 100 µM.
On the same count and under the same terms, the same measure for `Cc1nc(N)c(N2CCN([N+](=O)[O-])CC2)c(=O)[nH]1`: greater than 100 µM; for `N#CC12C(=O)N=C(N)C1(C#N)C(c1ccco1)NC1=C2CCCC1` (stereo unspecified): greater than 100 µM.
The compound `CCN(CC)CCN(C(=Nc1ccccc1)N1CCOCC1)c1ccccc1` yielded a TGI greater than 100 µM.

The test system of another experiment is SK-MEL-5 melanoma. The experiment is described as follows: inhibition of tumour cell growth, NCI panel, 48 h.
The compound `CC1(C)CCCC2OC2CCC(C)(C)C1=O` (stereo unspecified) displayed a TGI greater than 100 µM.
In the case of `O=C1NCC2(CCN(CCCC3(c4ccc(F)cc4)OCCO3)CC2)N1c1ccccc1`, the TGI was greater than 100 µM.
On the same count and under the same terms, the same measure for `COc1ccc2c(c1)/C(=C\c1c(Cl)nc3sc(C)cn13)C(=O)N2`: 11.8 µM; for `O=C(/C=C/c1ccc2c(c1)OCO2)CC(=O)C(=O)c1c[nH]c2ccccc12`: greater than 100 µM; for `O=C(Nc1nccs1)c1c(O)nc2sccn2c1=O`: greater than 10 µM.
Still for that read-out and setting: the same measure for `O=c1[nH]c(=O)n(C2OC(CO)C(O)C2O)c2nc(-c3ccc(-c4ccccc4)cc3)cnc12` (stereo unspecified): greater than 100 µM; for `O=C1NCCN1/N=C/c1c(Cl)n(-c2ccccc2)c2ccccc12`: 29.3 µM; for `N=C(N)SCc1ccc2c(c1)Sc1ccccc1O2`: 3.11 µM.
On to `CO[C@H]1/C=C(/C)CCC[C@H](C)[C@H](O)[C@@H](C)C(=O)C(C)(C)[C@@H](O)CC(=O)O[C@@H]1/C(C)=C/c1csc(C)n1`, for which the GI50 is 0.0186 µM and the TGI was greater than 100 µM.

Source of the values: PubChem BioAssay (NCI).
